The target of assay [1] is T1, glutathione-S-transferase (GST) tagged LXRbeta LBD (ligand binding domain) (Homo sapiens, UniProt P55055).
T1 construct: purchased Invitrogen pv4658.pps
T1 sequence (P55055 222-460 limits assumed): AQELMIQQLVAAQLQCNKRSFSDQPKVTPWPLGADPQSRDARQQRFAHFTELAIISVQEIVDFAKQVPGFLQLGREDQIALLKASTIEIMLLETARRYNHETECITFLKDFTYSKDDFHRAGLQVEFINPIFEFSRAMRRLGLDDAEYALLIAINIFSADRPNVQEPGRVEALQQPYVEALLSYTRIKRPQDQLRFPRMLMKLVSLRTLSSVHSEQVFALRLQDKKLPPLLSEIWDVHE
Put plainly: LanthaScreen TR-FRET Liver X Receptor Coactivator Assay, co-activator recruitment to LXRbeta LBD. It is filed as biochemical. Particulars: for Emax: efficacy at max dose, in relation to reference dual agonist T0901317, read-out: LXR beta Activity @ max dose (%); for EC50: potency (Inflection Point, IP), co-activator recruitment to LXRbeta LBD, in relation to T0901317, read-out: LXR beta IP. In a few lines:
(§1)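 TR-FRET coactivator recruitment; compound + LBD, then fluorescein-coactivator peptide/Tb-anti-GST Ab mix; RT incubation; IP and Emax vs T0901317.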
A general note: Time-resolved FRET reads energy transfer from a long-lived donor to a nearby acceptor.

Assay [2] addresses T2, glutathione-S-transferase (GST) tagged LXRalpha LBD (ligand binding domain) (Homo sapiens, UniProt Q13133).
T2 construct: purchased Invitrogen pv4655
T2 sequence (Q13133 209-447 limits assumed): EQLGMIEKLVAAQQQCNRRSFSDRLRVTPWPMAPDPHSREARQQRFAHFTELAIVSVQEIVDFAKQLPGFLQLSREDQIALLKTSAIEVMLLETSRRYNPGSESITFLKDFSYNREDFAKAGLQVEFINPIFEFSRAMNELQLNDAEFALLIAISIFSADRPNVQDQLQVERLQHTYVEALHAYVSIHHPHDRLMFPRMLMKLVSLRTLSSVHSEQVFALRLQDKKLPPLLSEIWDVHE
Put plainly: LanthaScreen TR-FRET Liver X Receptor Coactivator Assay, co-activator recruitment to LXRalpha LBD. In kind it is biochemical. As to conditions: for Emax: efficacy at max dose, in relation to reference dual agonist T0901317, read-out: LXR alpha Activity @ max dose (%); for EC50 / LXR alpha IP (nM): potency (Inflection Point, IP), co-activator recruitment to LXRalpha LBD, in relation to T0901317; for EC50: read-out: LXR alpha IP. In short, it runs like this: as §1

Structures are written as SMILES.

For the molecule `CNC(=O)c1ccc(N2CCC(OC3CCN(C(=O)C(O)(c4cccc(OC)c4)C(F)(F)F)CC3)CC2)cc1Cl` (centres unmarked) [Example 7-32, 2-chloro-N-methyl-4-[4-({1-[3,3,3-trifluoro-2-hydroxy-2-(3-methoxyphenyl)propanoyl]piperidin-4-yl}oxy)piperidin-1-yl]benzamide], in assay [1], the Emax was found to be 92% and the EC50 stood at 0.184 µM. Further, in assay [2], the Emax came to 18% and the EC50 stood at 4.24 µM.

Take `Cc1cccc([C@@](O)(C(=O)N2CCC(CC3CCN(c4ccc(C(=O)N(C)C)c(Cl)c4)CC3)CC2)C(F)(F)F)c1` [Example 2-112, 2-chloro-N,N-dimethyl-4-[4-({1-[(2R)-3,3,3-trifluoro-2-hydroxy-2-(3-methylphenyl)propanoyl]piperidin-4-yl}methyl)piperidin-1-yl]benzamide]: in assay [1], the Emax was found to be 44% and the EC50 stood at 0.008 µM. In assay [2], the Emax worked out at 10% and the “LXR alpha IP (nM)” value is listed as “NO IP”.

Consider `CN(C)C(=O)c1ccc(N2CCC(CC3CN(C(=O)[C@](O)(c4cccc(Cl)c4)C(F)(F)F)C3)CC2)nc1Cl` [Example 7-41, 2-chloro-6-[4-({1-[(2R)-2-(3-chlorophenyl)-3,3,3-trifluoro-2-hydroxypropanoyl]azetidin-3-yl}methyl)piperidin-1-yl]-N,N-dimethylpyridine-3-carboxamide], for which, in assay [1], the Emax stood at 110% and the EC50 turned out to be 0.011 µM. In assay [2], the Emax came to 35% and the EC50 came out at 0.525 µM.

On to `CN(Cc1cncs1)C(=O)c1ccc(N2CCC(CC3CCN(C(=O)[C@](O)(c4ccccc4)C(F)(F)F)CC3)CC2)cc1Cl` [Example 4-20, 2-chloro-N-methyl-N-(1,3-thiazol-5-ylmethyl)-4-[4-({1-[(2R)-3,3,3-trifluoro-2-hydroxy-2-phenylpropanoyl]piperidin-4-yl}methyl)piperidin-1-yl]benzamide], for which, in assay [1], the Emax worked out at 63% and the EC50 was 0.095 µM. Also, in assay [2], the Emax is 34% and the EC50 is 0.541 µM.

Take `Cc1nc(N2CCC(CC3CCN(C(=O)[C@](O)(c4ccccc4)C(F)(F)F)CC3)CC2)ccc1C(=O)N(C)C` [Example 7-1, (R)—N,N,2-trimethyl-6-(4-((1-(3,3,3-trifluoro-2-hydroxy-2-phenylpropanoyl)piperidin-4-yl)methyl)piperidin-1-yl)nicotinamide]: in assay [1], the Emax came out at 80% and the EC50 was 0.019 µM. For the same molecule, in assay [2], the Emax came to 35% and the EC50 came out at 0.895 µM.

For `CCOc1cccc([C@@](O)(C(=O)N2CCC(CC3CCN(c4ccc(C(=O)NC)c(Cl)n4)CC3)CC2)C(F)(F)F)c1` [Example 7-137, 2-chloro-6-[4-({1-[(2R)-2-(3-ethoxyphenyl)-3,3,3-trifluoro-2-hydroxypropanoyl]piperidin-4-yl}methyl)piperidin-1-yl]-N-methylpyridine-3-carboxamide], in assay [1], the Emax is 82% and the EC50 was found to be 0.023 µM. In assay [2], the Emax turned out to be 9% and the “LXR alpha IP (nM)” value is “NO IP”.

As for `CN(C)C(=O)c1ccc(N2CCC(CC3CCN(C(=O)[C@](O)(c4cccc(CC#N)c4)C(F)(F)F)CC3)CC2)cc1Cl` [Example 2-120, 2-chloro-4-{4-[(1-{(2R)-2-[3-(cyanomethyl)phenyl]-3,3,3-trifluoro-2-hydroxy-propanoyl}piperidin-4-yl)methyl]piperidin-1-yl}-N,N-dimethyl-benzamide], in assay [1], the Emax came to 46% and the EC50 came out at 0.016 µM. Further, in assay [2], the Emax was 6% and the “LXR alpha IP (nM)” value was “NO IP”.

As to `CN(C)C(=O)c1ccc(N2CCC(CC3(C)CCN(C(=O)[C@](O)(c4cccc(OC(F)(F)F)c4)C(F)(F)F)CC3)CC2)cc1Cl` [Example 2-51, 2-chloro-N,N-dimethyl-4-{4-[(4-methyl-1-{(2R)-3,3,3-trifluoro-2-hydroxy-2-[3-(trifluoro-methoxy)phenyl]propanoyl}piperidin-4-yl)methyl]piperidin-1-yl}benzamide], in assay [1], the Emax worked out at 57% and the EC50 stood at 0.032 µM. Moreover, in assay [2], the Emax was determined as 11% and the “LXR alpha IP (nM)” value is “NO IP”.

These data come from US10752587B2, “Homobispiperidinyl derivatives as liver X receptor beta agonists, compositions and their use” (Merck Sharp & Dohme Corp., priority 2015, dated 2020).
